Patent US20180209979A1, “METHOD FOR INDIVIDUALIZED CANCER THERAPY” (INSERM (INSTITUT NATIONAL DE LA SANTE ET DE LA RECHERCHE), priority 2015, published 2018)

Assays:
CAL 33 cells = assay: qPCR analysis of pro-angiogenic/pro-inflammatory genes induced by TRF2 silencing; format: cell-based, human; details: shC cells = 100
Source text: (§1) To further analyze the effect of TRF2 knock-down on cell proliferation, invasion capabilities and treatment response, CAL 33 cells expressing shRNA against TRF2 and dominant negative forms of TRF2 were generated (Biroccio A et al. Nat Cell Biol 2013; 15(7):818-28). CAL 33 cells were infected using lentiviral vector (pLKOpuro-3×LacO, Sigma). The plasmids contained scramble (shC; SEQ ID No1) or TRF2-specific shRNA, sh1 (SEQ ID No2) or sh2 (SEQ ID No3).

CAL33LUC cells = assay: Tumor xenograft formation, size evaluation and tumor section analysis; format: in vivo; details: 10^6 CAL33LUC cells subcutaneously in nude mice, versus shC, FIG. 5
Experimental: 10^6 cells were injected subcutaneously into the flanks of 5-week-old nude (nu/nu) female mice (Janvier). Bioluminescence was quantified using the In Vivo Imaging System (Perkin Elmer) according to the manufacturer's instructions. Tumor volume [(v ¼ L l^2 0.52] was determined in parallel using a caliper. There was a linear relationship between values for bioluminescence and the tumor volume.
Immuno-histochemical staining for TRF2 was carried out in 3 μm tissue sections from formalin-fixed, paraffin-embedded tissue blocks. Histopathological analysis was conducted in 3 μm tissue sections colored with Masson's trichrome (blue collagen) and scanned with Leica Slide Path. For each tumor, pictures were taken and the following parameters were analyzed using Leica Slide Path Gateway software: total area of the section, area of necrosis, presence of white blood cells inflammatory infiltrate, presence of red blood cells extravasation, thickness of collagen around vessels, number of vessels.

TRF2 = TRF2 knock-down tested by immunoblotting in CAL33 cells; format: cell-based, human; details: FIG. 2A
Source text: as §1
The following antibodies were used for Western blotting: anti-phospho ERK 1,2 (Sigma St Louis, Mo.), anti-phospho Akt, anti-Akt, anti-EGFR (Cell Signaling, Cambridge, UK,), anti-ERKs (Santa Cruz Biotechnology, Santa Cruz, Calif.)), anti-TRF2 (Novus bio, Cambridge, UK) and alpha-tubulin (Fischer scientific, Illkirch France).

CAL33 cells [1] = assay: Cumulative population doublings of CAL33 cells; format: cell-based, human; details: FIG. 2B
Experimental: (§2) For cumulative population doublings assays (Nekanti U et al. Int J Biol Sci 2010; 6(5):499-512.) 10^5 cells were grown in 7.5% FCS-DMEM medium for 28 days at 37° C. and 5% CO2 in Petri boxes 100 mm diameter. Cells were counted each day (Coulter, Beckman) and media were changed every five days. Cells at each passage was calculated as a ratio of total number of cells harvested to total number of cells seeded multiplied by the total number of cells from the previous passage. Population doublings were calculated using the formula: […]
(§3) in which NI is the inoculum cell number and NH the cell harvest number.
(§4) To yield the cumulated doubling level, the population doubling for each passage was calculated and then added to the population doubling levels of the previous passages. The population doubling time was obtained by the formula: […]
(§5) In which NI is the inoculum cell number; NH is the cell harvest number and t is the time of the culture (in hours).

CAL27 cells = assay: Cumulative population doublings of CAL27 cells; format: cell-based, human; details: FIG. 3B
Experimental: as §2, §3, §4, §5

CAL33 cells [2] = assay: Clonogenicity assay (clonal growth) of shC, sh1 and sh2 CAL33 cells; format: cell-based, human; details: for inhibition at 0.1 µM: Homo sapiens, CAL-33, erlotinib 0.1 μmol/L, FIG. 7
Experimental: The mean and standard deviation were calculated for three independent experiments. Statistical analysis was carried out using a t test. […] Dishes were then stained with Giemsa (Fluka) and plates were scanned in order to analyze the results by computer with ImageJ software (NIH, USA).

CAL33 cells [3] = details: read-out: IC50 of erlotinib, Quesnelle K M et al. 2012; cited from earlier work
head and neck tumors = details: Agulnik M et al. 2007; cited from earlier work

| Compound | percentage expression of 36B4 (CAL 33 cells) [%] | percentage expression of CXCL1 (CAL 33 cells) | percentage expression of CXCL7 (CAL 33 cells) | percentage expression of CXCL8 (CAL 33 cells) | percentage expression of CXCL9 (CAL 33 cells) | percentage expression of GAPDH (CAL 33 cells) [%] | percentage expression of IL6 (CAL 33 cells) | percentage expression of PDGF-BB (CAL 33 cells) | percentage expression of RANTES (CAL 33 cells) | percentage expression of TRF2 (CAL 33 cells) [%] | percentage expression of m-RPLP0 (CAL 33 cells) [%] | tumor growth / tumor size (bioluminescence) (CAL33LUC cells) | proliferation (cumulative population doublings) (CAL33 cells [1]) | proliferation (cumulative population doublings) (CAL27 cells) | other results |
| --- | --- | --- | --- | --- | --- | --- | --- | --- | --- | --- | --- | --- | --- | --- | --- |
| sh2: TRF2-specific shRNA encoded by DNA of SEQ ID No3, expressed from lentiviral vector (DNA GCGCATGACAATAAGCAGATTCTCGAGAATCTGCTTATTGTCATGCGC) | 100 | 370(***) % | 120(*) % | 1100(***) % | 600(***) % | 100 | 1000(***) % | 190(***) % | 190(***) % | 40 | 100 | decreases tumor growth | does not impair CAL33 proliferation | does not impair CAL27 proliferation | tumor growth / tumor size (bioluminescence) (CAL33LUC cells; listed as shTRF2 #2): smallest tumors; efficacy in knocking-down TRF2 (TRF2): most efficient |
| O=c1[nH]cc(F)c(=O)[nH]1 [5 FU] | – | – | – | – | – | – | – | – | – | – | – | – | – | – | influence of TRF2 knock-down on the efficacy of the drug (clonal growth) (CAL33 cells [2]; shC, sh1 and sh2 CAL33 cells, FIG. 6B): no influence |
| C#Cc1cccc(Nc2ncnc3cc(OCCOC)c(OCCOC)cc23)c1 [erlotinib] | – | – | – | – | – | – | – | – | – | – | – | – | – | – | inhibition at 0.1 µM (CAL33 cells [2]; sh1 CAL33 cells (TRF2 knock-down)): 40%; inhibition at 0.1 µM (CAL33 cells [2]; sh2 CAL33 cells (TRF2 knock-down)): 50%; IC50 (CAL33 cells [3]): 5.4 µM; patients with an objective response to the treatment (head and neck tumors): 50% |
| sh1: TRF2-specific shRNA encoded by DNA of SEQ ID No2, expressed from lentiviral vector (DNA GCCAGAATATCATTAGCGTTTCTCGAGAAACGCTAATGATATTCTGGC) | 100 | 380(***) % | 110% | 350(***) % | 210(**) % | 100 | 400(***) % | 150(*) % | 270(***) % | 70 | 100 | decreases tumor growth | does not impair CAL33 proliferation | does not impair CAL27 proliferation | – |
